Results from US10278911B2, “Compositions containing cyclic peptides and methods of use” (Merck Patent GmbH, priority 2008, dated 2019).
Each block holds one compound with its values, some of them ahead of it. Non-standard residues stand in square brackets, D forms with d. Residues, ends and D or L forms follow the SMILES beside them.

Assays:
human placental αVβ3 = target: T1, human placental αVβ3 (Homo sapiens, UniProt P05106+P06756); assay: Receptor inhibition assay, binding of biotinylated ligands to human placental αVβ3; conditions: purified human placental αVβ3, biotinylated vitronectin, 3 h at 30° C.; read-out: IC50 VN: αvβ3
T1 construct: Purified human integrin αVβ3 from term placenta; from tissue; host or cells: human term placenta
Description: After 3 h at 30° C. bound ligand was measures by anti-biotin—alkaline phosphatase detection.

[1] = target: T2, vitronectin receptor aVβ3 (Homo sapiens, UniProt P05106+P06756); assay: Pentapeptides as inhibitors of αVβ3 (immobilized), solid-phase inhibition assay; conditions: αVβ3 from human placental extracts, binding of vitronectin, read-out: IC50 VN: αvβ3
T2 construct: Integrin αVβ3 is purified from human placental extracts; from tissue; host or cells: human placenta (extracts)
Description: Preparation and Characterization of Integrin αVβ3: Integrin αVβ3 is purified from human placental extracts by affinity chromatography on GRGDSPK peptide. Extraction and chromatography follows previously published protocols except that Triton X-100 is replaced by 25 mM octyl-P-D-glucopyranoside. Bound integrin is eluted with 10 mM EDTA into 1.5-ml vials containing 25 pl of 1 M MgCl, and concentrated in Centricon 100 microconcentrators. They are stored at 4° C. in neutral buffer containing 25 mM octyl glucoside, and 0.05% sodium azide. Protein concentrations were determined by a micro BCA assay (Pierce).
Solid-phase inhibition assays are established for the inhibition of binding of the vitronectin receptor aVβ3 to their corresponding protein ligands by the cyclic peptides. Inhibitory activities (IC50) of cyclic RGD containing peptides for the binding of vitronectin (VN). Integrins are used as immobilized ligands.

av-beta6 = av-beta6 (Homo sapiens, UniProt P06756+P18564); assay: Integrin ligand activity (in vitro studies); assay type: binding
av-beta3/5 = assay: Integrin ligand activity (in vitro studies); assay type: binding
[2] = tested on: full thickness skin model (human primary epidermal keratinocytes and human fibroblasts); assay: cDNA-microarray gene expression profile of treated human skin model (PIQOR-skin); assay type: cell-based; conditions: 0.5 μM, 4 days incubation
Description: The following is a study to determine the gene expression profiles of Cyclo-(Arg-Gly-Asp-DPhe-Acha) (=CPPC 1) treated human skin.
For the analysis of deregulated gene expression induced by substance CPPC 1, treated and control samples from a human skin model are analyzed as follows: • A full thickness skin model (human primary epidermal keratinocytes and human fibroblasts), such as the Phenion® FTSM, commercially available from Phenion GmbH & Co. KG, Düsseldorf, Germany, is used. Cells are not pooled or genetically modified. • Gene expression analysis is carried out with PIQOR™-skin cDNA microarrays, which contains 1312 genes that are involved in target pathways related to stress, inflammation, pigmentation and depigmentation, moisturization, anti-ageing and hair follicle development in humans. For instance, cell cycle, apoptosis, DNA repair, oxidative metabolism, angiogenesis, cell adhesion cell-matrix interactions and signaling. Genes are represented with four replicate spots. • Treatment with CPPC 1 is performed in 0.5 μM concentration (4 days incubation, n=3 per condition). […] Profiling of Gene Expression—Input Genes
A ratio (log 2) value of zero indicates no regulation, whereas positive (log 2) values indicate an upregulation and negative (log 2) values a downregulation of the relevant gene.
The deregulated genes for skin samples treated with 0.5 μM concentration is used for further analysis.

integrin αVβ3 = integrin αVβ3 (Homo sapiens, UniProt P05106+P06756); assay: Isolated integrin-ligand binding assay (ligand inhibition, immobilized integrin, biotinylated vitronectin); conditions: immobilized recombinant human integrin, biotinylated human serum vitronectin as ligand
Description: i) Isolated Integrin-Ligand Binding Assay The production of recombinant human integrin is known in the literature. […] In brief, 96-well ELISA plates are coated by adsorption from neutral aqueous buffers of 1 microg/ml integrin. After blocking residual sites on the plate with BSA, biotinylated ligands (1 microg/ml) are added in the presence or absence of serial dilutions of inhibitor, and after incubation and washing, bound biotin is detected with peroxidase-coupled anti-biotin antibody and TMB substrate.

T1 sequence (P06756 31-889 limits assumed): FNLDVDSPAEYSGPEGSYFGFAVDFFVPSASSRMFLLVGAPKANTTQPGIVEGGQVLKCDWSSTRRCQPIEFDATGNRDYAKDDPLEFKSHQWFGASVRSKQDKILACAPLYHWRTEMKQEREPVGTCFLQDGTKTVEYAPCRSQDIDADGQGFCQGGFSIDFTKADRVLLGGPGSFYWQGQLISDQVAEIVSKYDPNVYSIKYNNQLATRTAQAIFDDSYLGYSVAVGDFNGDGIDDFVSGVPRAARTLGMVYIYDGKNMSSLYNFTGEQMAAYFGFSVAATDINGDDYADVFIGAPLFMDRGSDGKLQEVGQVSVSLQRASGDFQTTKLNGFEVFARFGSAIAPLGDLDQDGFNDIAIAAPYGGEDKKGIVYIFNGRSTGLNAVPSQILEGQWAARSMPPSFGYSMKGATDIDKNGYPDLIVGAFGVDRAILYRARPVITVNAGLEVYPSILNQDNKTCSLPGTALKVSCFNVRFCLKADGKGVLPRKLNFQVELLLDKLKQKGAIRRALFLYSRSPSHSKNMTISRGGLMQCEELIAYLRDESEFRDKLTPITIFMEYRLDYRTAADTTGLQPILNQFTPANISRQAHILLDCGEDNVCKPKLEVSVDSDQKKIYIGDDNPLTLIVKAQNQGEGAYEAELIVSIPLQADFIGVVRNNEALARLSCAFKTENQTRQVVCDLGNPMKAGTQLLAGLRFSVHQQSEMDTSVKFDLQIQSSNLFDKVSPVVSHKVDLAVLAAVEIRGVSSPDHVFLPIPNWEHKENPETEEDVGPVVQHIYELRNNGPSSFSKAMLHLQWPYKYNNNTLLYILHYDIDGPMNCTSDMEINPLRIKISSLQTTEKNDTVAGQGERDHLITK
T1 sequence (P06756 891-1048 partner limits assumed): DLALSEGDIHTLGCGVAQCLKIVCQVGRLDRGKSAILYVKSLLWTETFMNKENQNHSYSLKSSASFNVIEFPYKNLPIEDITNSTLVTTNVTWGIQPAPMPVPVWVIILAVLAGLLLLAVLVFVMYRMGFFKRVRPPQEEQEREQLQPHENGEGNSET
T1 sequence (P05106 27-788): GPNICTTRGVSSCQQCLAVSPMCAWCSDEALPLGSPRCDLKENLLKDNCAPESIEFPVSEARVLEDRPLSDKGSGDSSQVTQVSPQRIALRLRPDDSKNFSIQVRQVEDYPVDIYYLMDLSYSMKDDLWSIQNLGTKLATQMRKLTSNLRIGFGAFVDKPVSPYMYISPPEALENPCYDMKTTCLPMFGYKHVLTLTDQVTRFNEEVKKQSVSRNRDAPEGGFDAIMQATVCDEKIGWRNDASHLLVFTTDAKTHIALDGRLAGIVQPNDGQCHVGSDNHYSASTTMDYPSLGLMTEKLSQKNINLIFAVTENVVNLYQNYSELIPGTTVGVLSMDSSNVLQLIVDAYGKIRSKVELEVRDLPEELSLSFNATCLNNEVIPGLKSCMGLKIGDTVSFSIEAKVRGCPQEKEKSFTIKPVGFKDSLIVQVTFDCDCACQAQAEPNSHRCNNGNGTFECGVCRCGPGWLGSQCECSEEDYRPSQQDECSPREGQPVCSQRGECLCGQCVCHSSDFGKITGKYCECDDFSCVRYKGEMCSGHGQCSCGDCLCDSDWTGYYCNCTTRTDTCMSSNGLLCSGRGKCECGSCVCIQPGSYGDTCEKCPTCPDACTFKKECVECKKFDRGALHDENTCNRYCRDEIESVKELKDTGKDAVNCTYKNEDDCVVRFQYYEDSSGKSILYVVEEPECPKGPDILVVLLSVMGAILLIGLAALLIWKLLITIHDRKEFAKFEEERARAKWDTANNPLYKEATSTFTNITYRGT
T2 sequence (P06756 31-889 limits assumed): as the sequence (P06756 31-889 limits assumed) above
T2 sequence (P06756 891-1048 partner limits assumed): as the sequence (P06756 891-1048 partner limits assumed) above
T2 sequence (P05106 27-788): as the sequence (P05106 27-788) above
integrin αVβ3, sequence (P06756 31-1048): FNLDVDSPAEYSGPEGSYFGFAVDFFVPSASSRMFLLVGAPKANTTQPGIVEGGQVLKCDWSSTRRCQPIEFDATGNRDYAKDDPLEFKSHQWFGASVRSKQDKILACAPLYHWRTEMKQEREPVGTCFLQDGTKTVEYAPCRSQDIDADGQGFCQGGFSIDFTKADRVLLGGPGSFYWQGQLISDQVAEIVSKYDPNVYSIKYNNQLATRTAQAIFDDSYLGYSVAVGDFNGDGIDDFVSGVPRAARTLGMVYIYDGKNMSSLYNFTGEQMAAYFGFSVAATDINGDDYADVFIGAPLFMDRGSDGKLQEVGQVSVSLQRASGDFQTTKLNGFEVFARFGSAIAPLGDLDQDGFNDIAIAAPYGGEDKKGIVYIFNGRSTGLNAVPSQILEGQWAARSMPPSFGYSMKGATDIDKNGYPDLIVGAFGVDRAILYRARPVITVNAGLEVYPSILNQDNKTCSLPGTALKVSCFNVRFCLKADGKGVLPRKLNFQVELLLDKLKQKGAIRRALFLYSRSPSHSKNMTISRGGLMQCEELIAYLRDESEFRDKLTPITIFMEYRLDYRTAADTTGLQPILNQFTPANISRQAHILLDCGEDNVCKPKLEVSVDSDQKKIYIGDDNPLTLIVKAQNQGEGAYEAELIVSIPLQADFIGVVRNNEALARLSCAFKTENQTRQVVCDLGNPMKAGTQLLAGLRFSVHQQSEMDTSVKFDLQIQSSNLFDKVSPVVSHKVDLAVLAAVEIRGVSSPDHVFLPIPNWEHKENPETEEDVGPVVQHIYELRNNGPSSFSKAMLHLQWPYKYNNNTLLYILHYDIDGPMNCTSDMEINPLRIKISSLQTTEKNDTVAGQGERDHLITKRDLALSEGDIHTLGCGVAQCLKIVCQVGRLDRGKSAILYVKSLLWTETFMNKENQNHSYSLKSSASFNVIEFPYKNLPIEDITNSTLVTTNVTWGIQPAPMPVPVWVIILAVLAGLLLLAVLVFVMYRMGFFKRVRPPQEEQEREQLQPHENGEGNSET
integrin αVβ3, sequence (P05106 27-788): as the sequence (P05106 27-788) above
av-beta6, sequence (P06756 31-1048): as the sequence (P06756 31-1048) above
av-beta6, sequence (P18564 22-788): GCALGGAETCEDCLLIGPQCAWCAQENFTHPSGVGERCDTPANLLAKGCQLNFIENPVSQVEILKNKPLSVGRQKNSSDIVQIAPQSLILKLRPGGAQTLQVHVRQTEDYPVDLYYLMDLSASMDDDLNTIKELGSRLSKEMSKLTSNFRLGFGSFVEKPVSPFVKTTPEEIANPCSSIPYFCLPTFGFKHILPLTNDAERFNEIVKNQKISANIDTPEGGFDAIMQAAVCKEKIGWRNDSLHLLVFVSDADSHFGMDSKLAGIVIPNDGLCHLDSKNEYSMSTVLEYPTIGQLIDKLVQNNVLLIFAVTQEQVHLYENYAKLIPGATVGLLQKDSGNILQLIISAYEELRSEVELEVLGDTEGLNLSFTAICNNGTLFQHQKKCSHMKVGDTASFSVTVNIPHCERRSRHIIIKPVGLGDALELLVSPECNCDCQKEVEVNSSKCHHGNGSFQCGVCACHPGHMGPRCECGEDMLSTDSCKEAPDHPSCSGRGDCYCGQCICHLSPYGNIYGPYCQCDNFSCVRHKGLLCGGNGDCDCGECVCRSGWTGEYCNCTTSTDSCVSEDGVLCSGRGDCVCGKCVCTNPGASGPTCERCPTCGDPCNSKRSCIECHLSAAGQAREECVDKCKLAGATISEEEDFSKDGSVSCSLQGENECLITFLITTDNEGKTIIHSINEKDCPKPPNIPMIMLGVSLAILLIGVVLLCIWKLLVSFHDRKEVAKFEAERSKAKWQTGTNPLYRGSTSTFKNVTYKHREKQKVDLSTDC

IC50 (human placental αVβ3): 3 nM
SMILES: CC(C)(C)[C@@H]1NC(=O)[C@@H](Cc2ccc(F)cc2)NC(=O)[C@H](CC(=O)O)NC(=O)CNC(=O)[C@H](CCCNC(=N)N)NC1=O [Cyclo-(Arg-Gly-Asp-DPhe(4-F)-Tle)]

IC50 [1]: > 240000 nM
SMILES: CC(C)[C@@H]1NC(=O)[C@H](Cc2ccccc2)NC(=O)[C@H](CC(=O)O)NC(=O)[C@@H](C)NC(=O)[C@H](CCCNC(=N)N)NC1=O [Cyclo-(Arg-DAla-Asp-Phe-Val)] (cyclo(R[dA]DFV))

activity as av-beta6 ligand (av-beta6): low active | SEPRASE gene expression, Compound vs. Control, ratio Log(2) value [2]: 0.546
SMILES: N=C(N)NCCC[C@@H]1NC(=O)C2(CCCCC2)NC(=O)[C@@H](Cc2ccccc2)NC(=O)[C@H](CC(=O)O)NC(=O)CNC1=O [CPPC 1, Cyclo-(Arg-Gly-Asp-DPhe-Acha)]
activity as av-beta3/5 ligand (av-beta3/5): highly active | ADAM9 gene expression, Compound vs. Control, ratio Log(2) value [2]: 0.4854 | ASC gene expression, Compound vs. Control, ratio Log(2) value [2]: −0.304 | BCL2L1 gene expression, Compound vs. Control, ratio Log(2) value [2]: 0.263 | BMP-3 gene expression in treated skin [2]: downregulated | C19orf10 gene expression, Compound vs. Control, ratio Log(2) value [2]: 0.263 | CASP8 gene expression, Compound vs. Control, ratio Log(2) value [2]: −0.304 | CCNB2 gene expression, Compound vs. Control, ratio Log(2) value [2]: 0.4647 | CD81 gene expression, Compound vs. Control, ratio Log(2) value [2]: 0.251 | CDK2 gene expression, Compound vs. Control, ratio Log(2) value [2]: 0.2265 | CDK4 gene expression, Compound vs. Control, ratio Log(2) value [2]: 0.1375 | CLU gene expression, Compound vs. Control, ratio Log(2) value [2]: 0.4436 | DDR2 gene expression, Compound vs. Control, ratio Log(2) value [2]: 0.2869 | E2F3 gene expression, Compound vs. Control, ratio Log(2) value [2]: −0.3959 | EGF gene expression, Compound vs. Control, ratio Log(2) value [2]: −0.2345 | ELA2 gene expression, Compound vs. Control, ratio Log(2) value [2]: −0.2345 | FBLN1_4 gene expression, Compound vs. Control, ratio Log(2) value [2]: 0.516 | FBLN2 gene expression, Compound vs. Control, ratio Log(2) value [2]: 0.3785 | FGF1 gene expression, Compound vs. Control, ratio Log(2) value [2]: 0.5059 | FLOT2 gene expression, Compound vs. Control, ratio Log(2) value [2]: 0.4542 | GDF10 gene expression, Compound vs. Control, ratio Log(2) value [2]: −0.2863 | IGFBP4 gene expression, Compound vs. Control, ratio Log(2) value [2]: 0.4854 | IL2 gene expression, Compound vs. Control, ratio Log(2) value [2]: −0.5778 | IL6 gene expression, Compound vs. Control, ratio Log(2) value [2]: 0.4854 | IL7 gene expression, Compound vs. Control, ratio Log(2) value [2]: −0.3585 | IL8 gene expression, Compound vs. Control, ratio Log(2) value [2]: 0.3219 | IL17A gene expression, Compound vs. Control, ratio Log(2) value [2]: −0.6666 | JUN gene expression, Compound vs. Control, ratio Log(2) value [2]: −0.5778 | KRT2A gene expression, Compound vs. Control, ratio Log(2) value [2]: 0.4005 | KRT9 gene expression, Compound vs. Control, ratio Log(2) value [2]: −0.2688 | KRT19 gene expression, Compound vs. Control, ratio Log(2) value [2]: 0.3334 | LCN2 gene expression, Compound vs. Control, ratio Log(2) value [2]: −0.5564 | MCL1 gene expression, Compound vs. Control, ratio Log(2) value [2]: 0.3674 | PGF gene expression, Compound vs. Control, ratio Log(2) value [2]: 0.2141 | PTGS2 gene expression, Compound vs. Control, ratio Log(2) value [2]: 0.4222 | QSOX1 gene expression, Compound vs. Control, ratio Log(2) value [2]: 0.433 | S100A12 gene expression, Compound vs. Control, ratio Log(2) value [2]: −0.2515 | SDCBP gene expression, Compound vs. Control, ratio Log(2) value [2]: 0.3896 | SOCS1 gene expression, Compound vs. Control, ratio Log(2) value [2]: 0.3334 | SPARC gene expression, Compound vs. Control, ratio Log(2) value [2]: 0.3674 | SPRR1A gene expression, Compound vs. Control, ratio Log(2) value [2]: −0.304 | STAT1 gene expression, Compound vs. Control, ratio Log(2) value [2]: 0.3103 | STAT5B gene expression, Compound vs. Control, ratio Log(2) value [2]: −0.1844 | TNF gene expression, Compound vs. Control, ratio Log(2) value [2]: −0.304 | TNFC gene expression, Compound vs. Control, ratio Log(2) value [2]: −0.3401 | TNFRSF1B gene expression, Compound vs. Control, ratio Log(2) value [2]: −0.3585 | TNFRSF25 gene expression, Compound vs. Control, ratio Log(2) value [2]: −0.2688 | TNFSF10 gene expression, Compound vs. Control, ratio Log(2) value [2]: −0.2688 | TNFSF13B gene expression, Compound vs. Control, ratio Log(2) value [2]: −0.2688 | TUBB gene expression, Compound vs. Control, ratio Log(2) value [2]: 0.6599 | TXLN gene expression, Compound vs. Control, ratio Log(2) value [2]: −0.8365 | bone morphogenic proteins (BMPs) gene expression in treated skin [2]: downregulated | fibulins gene expression in treated skin [2]: upregulated | number of deregulated genes selected (of 1312 genes on the microarray) ([2]; p<0.05, at least […] deregulation): 345

IC50 (integrin αVβ3): 24 nM
SMILES: C[C@H]1C(=O)N[C@@H](CCCNC(=N)N)C(=O)NCC(=O)N[C@@H](CC(=O)O)C(=O)N[C@H](Cc2ccccc2)C(=O)N1C [Cyclo-(Arg-Gly-Asp-DPhe-(NMe)Ala)]
